The text below walks through data of patent US10485769B2, “Cholesteryl ester transfer protein (CETP) inhibition in the treatment of cancer” (KING ABDULLAH UNIVERSITY OF SCIENCE AND TECHNOLOGY, priority 2015, dated 2019).

One series has as its system CETP. Briefly: CETP activity in mice plasma, CETP activity assay kit. It counts as in vivo. Conditions: 5 mg/kg AP, compared to Vehicle. How it is done: FIG. 7: Levels of CETP mRNA in tumor (A) and protein in serum (B) in mice tumor samples after treatment with 2 mg/kg PL or 5 mg/kg AP were determined with the RT-PCR and western blotting, respectively. Fold change in expression of serum protein was determined using densitometry analysis of western blots using ImageJ (C). CETP activity in serum was estimated using CETP activity kit (name of kit/manufacturer) (D). Values represent the means±SD of three independent experiments. * where p≤0.05, and ** where p≤0.005.
The activity of CETP in mice plasma was determined using the CETP activity assay kit according to the manufacturer's instructions (FIG. 7D). CETP activity was […] in AP treated mice compared to Vehicle. This observation was in accordance with the CETP protein expression levels observed in Vehicle, AP and PL test groups. The expression levels of CETP have been reported to be linear with its activity.

For series [1], the system named is MCF-7 cells. Briefly: Viability of cancer cells, AP combined with chemotherapeutic drugs. It counts as cell-based, human. To be noted: 24 h. How it is done: FIG. 13: The effect of AP on viability of BJ and MCF-7 cells when combined with different doses of various chemotherapeutic drugs for 24 h. Values represent the means±SD of three replicates.
We anticipated that AP might have the potential to reduce toxicity and increase efficacy of known chemotherapeutic drugs which may enhance the usage of these drugs at lower concentrations with increased cancer killing effects. To test this preliminary, we treated normal (BJ) and Cancer (MCF-7) cells with different chemotherapeutic drugs as summarized in FIG. 13.
It is also clear from data that the cancer killing effect achieved using 20 μM tamoxifen was possible to achieve using a combination of AP with 10 μM tamoxifen while enhancing the viability of normal cells at the same time.

In series [2] the test system is MCF-7 cells. Conditions: as compared to BJ and triple negative BT20 cells; previously shown [1]; cited from earlier work.

For the molecule `CC(=O)Oc1cccc2c1C(=O)C=C(C)C2=O` [AP, Acetyl Plumbagin], the “CETP activity in plasma” value in the series with CETP is given as “elevated”. For the same molecule, the “reduction of viability of cancer cells” value with MCF-7 cells [1] (AP in combination with 5-Florouracil) was found to be 76%; in the series on MCF-7 cells [1] (AP with 10 μM of tamoxifen), 50%. Further, the “selectivity against MCF-7” value with MCF-7 cells [2] is on record as “selective activity”.
